Counter-ions that a name gives are not always drawn. Like-named read-outs stand apart in the source and are kept apart here.
Legend:
[1] = Evaluation test for metabolic stability to S9; format: in vitro ADME; settings: liver S9 fraction, 37° C., 15 minutes, final compound concentration 10 nM
Description: Test Example 4: Evaluation Test for Metabolic Stability to S9
The compounds were added to a reaction solution in which the liver S9 fraction was diluted with phosphate buffer, and incubation was initiated at 37° C. (final compound concentration 10 nM, final volume 300 μL). After incubation for 15 minutes, the reaction was stopped by adding the reaction solution to acetonitrile, and centrifugation was carried out. After filtering the supernatant through a filter, the amount of compounds was determined using LC/MS/MS. From the amount of compounds obtained, the residual rate 15 minutes after the initiation of the reaction was calculated relative to the amount of compounds before the initiation of the reaction (0 minutes).

Human TRPV1 = target: T1, Human TRPV1 (Homo sapiens, UniProt Q8NER1); assay: Evaluation of agonistic properties using human TRPV1 transiently expressing cells; format: cell-based; settings: for TRPV-1-agonistic activity (in words): evaluation test for TRPV-1-agonistic properties, summary of Tables 3 and 4
T1 construct: the TRPV1 gene (GenBank NP_542435.2) had been inserted; expressed in transfected cells; host or cells: HEK293 cells (cat #CCL-82.2, ATCC), transient transfection with pcDNA3.1
Description: Test Example 1: Evaluation of Agonistic Properties Using Human TRPV1 Transiently Expressing Cells
(1) Generation of Human TRPV1 Transiently Expressing Cells
Human TRPV1 transiently expressing cells were generated and subjected to culture. Specifically, HEK293 cells (cat #CCL-82.2, ATCC) were used as host cells. Human TRPV1 and apoaequorin were transiently expressed by introducing the mammalian cell expression pcDNA3.1 vector (cat #v790-20, Invitrogen) into which the TRPV1 gene (GenBank NP_542435.2) had been inserted.
The Dulbecco's Modified Eagle's Medium (DMEM) medium (cat #11550-043, Thermo Fisher Scientific) containing 10% inactivated fetal bovine serum (cat #10270-106, Thermo Fisher Scientific) was used as the medium, and the culture was carried out in tissue culture dishes (cat #3020-100, Iwaki). During the culture, cells were collected every 2 to 3 days by treating with PBS containing 10% 2.5 g/1-trypsin/[…] solution, phenol red (cat #32777-44, Nacalai Tesque), and passage culture was carried out.
Three days after the passage, cells were collected with 10% trypsin-PBS treatment at a state of about 80% confluency, suspended in a DMEM medium containing 10% fetal bovine serum to 4000 cells/35 μl/well, and seeded into 384-well plates (cat #353962, FALCON).
The day after seeding, Viviren (cat #E6492, Promega) was added (15 μl/well) to a final concentration of 4.5 μM/HBSS (cat #14065-056, Thermo Fisher Scientific)/90 mM HEPES (cat #17514-15, Nacalai Tesque)/0.1% BSA (cat #01281-84, Nacalai Tesque), and after centrifugation, the samples were allowed to stand at room temperature for 2 hours under light-shielded conditions.
(2) Preparation of Test Compounds
For the test compounds, dimethyl sulfoxide solutions were produced at a concentration 1000 times the final concentration, and from these solutions, solutions at concentration 10 times the final concentration were prepared with Hanks/20 mmol/L HEPES/0.10% BSA (cat #01281-84, Nacalai Tesque).
(3) Evaluation of TRPV1-Agonistic Properties
FDSS7000 (Hamamatsu Photonics K.K.) was used for detection of TRPV1 agonist-stimulated luminescence signals. The test compounds were added to plates to which the cells and luminescent substrates had been added. The luminescence signals (center wavelength: 465 nm) after addition of the test compounds were measured, and the Rlu (Max−Min) was calculated.

[2] = HEK293 cells transiently expressing human TRPV1 and apoaequorin, luminescence signal Rlu (Max-Min), read-out: TRPV1 EC50

T1 sequence (Q8NER1 whole entry): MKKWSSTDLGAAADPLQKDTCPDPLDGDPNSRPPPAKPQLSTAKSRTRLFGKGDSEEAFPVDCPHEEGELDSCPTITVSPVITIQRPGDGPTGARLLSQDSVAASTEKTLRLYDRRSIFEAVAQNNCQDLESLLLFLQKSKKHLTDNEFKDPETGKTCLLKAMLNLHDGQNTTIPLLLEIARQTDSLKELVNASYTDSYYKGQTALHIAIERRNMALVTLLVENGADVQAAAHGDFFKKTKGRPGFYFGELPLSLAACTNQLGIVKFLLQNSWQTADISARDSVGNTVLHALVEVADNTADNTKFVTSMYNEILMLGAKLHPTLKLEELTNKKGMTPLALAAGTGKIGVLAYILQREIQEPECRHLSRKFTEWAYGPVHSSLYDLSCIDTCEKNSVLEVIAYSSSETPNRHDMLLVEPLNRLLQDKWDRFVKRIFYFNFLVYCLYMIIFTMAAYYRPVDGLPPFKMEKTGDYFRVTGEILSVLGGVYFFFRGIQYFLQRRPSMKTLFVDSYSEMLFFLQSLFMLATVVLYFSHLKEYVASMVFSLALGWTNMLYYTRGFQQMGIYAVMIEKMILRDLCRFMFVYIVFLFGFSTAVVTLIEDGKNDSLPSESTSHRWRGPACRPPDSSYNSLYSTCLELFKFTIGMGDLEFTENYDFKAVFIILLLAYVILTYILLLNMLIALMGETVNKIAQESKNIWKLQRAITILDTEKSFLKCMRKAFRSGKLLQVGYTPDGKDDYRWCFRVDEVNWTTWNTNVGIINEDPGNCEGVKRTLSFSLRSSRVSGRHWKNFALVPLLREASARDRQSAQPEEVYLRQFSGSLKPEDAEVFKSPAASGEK

Row | SMILES | Residual rate (%) [1] [%] | EC50 (Human TRPV1; [2]) [nM] | TRPV-1-agonistic activity (in words) (Human TRPV1) | EC50 (Human TRPV1) [nM]
1 | COc1cc(CC(=O)Nc2cccc([C@H]3CC[C@@H](OC(=O)Cc4ccc(Cl)cc4)CC3)c2)ccc1O [Example 14, cis-4-{3-[2-(4-hydroxy-3-methoxyphenyl)acetamido]phenyl}cyclohexyl (4-chlorophenyl)acetate] | 11 | 6.3 | – | –
2 | COc1cc(CC(=O)Nc2cccc([C@H]3CC[C@@H](OC(=O)Cc4ccccc4F)CC3)c2)ccc1O [Example 15, cis-4-{3-[2-(4-hydroxy-3-methoxyphenyl)acetamido]phenyl}cyclohexyl (2-fluorophenyl)acetate] | 69 | 4.6 | stronger TRPV-1-agonistic activity | –
3 | CCC(=O)Oc1cccc(-c2cccc(NC(=O)Cc3ccc(O)c(OC)c3)c2)c1 [Example 16, 3′-[2-(4-hydroxy-3-methoxyphenyl)acetamido][1,1′-biphenyl]-3-yl propanoate] | <1 | 6.3 | – | –
4 | COc1cc(CC(=O)Nc2cccc([C@H]3CC[C@@H](OC(=O)C(C)C)CC3)c2)ccc1O [Example 17, cis-4-{3-[2-(4-hydroxy-3-methoxyphenyl)acetamido]phenyl}cyclohexyl 2-methylpropanoate] | <1 | 2.6 | stronger TRPV-1-agonistic activity | –
5 | COc1cc(CC(=O)Nc2cccc(-c3cccc(OC(=O)Cc4ccccc4)c3)c2)ccc1O [Example 18, 3′-[2-(4-hydroxy-3-methoxyphenyl)acetamido][1,1′-biphenyl]-3-yl phenylacetate] | <1 | – | – | 5.4
6 | COc1cc(CC(=O)Nc2ccc(F)c(-c3cccc(OC(=O)C(C)C)c3)c2)ccc1O [Example 19, 2′-fluoro-5′-[2-(4-hydroxy-3-methoxyphenyl)acetamido][1,1′-biphenyl]-3-yl 2-methylpropanoate] | <1 | 2.7 | stronger TRPV-1-agonistic activity | –
7 | COc1cc(CC(=O)Nc2cc(-c3cccc(OC(=O)C(C)C)c3)ccc2OC)ccc1O [Example 20, 3′-[2-(4-hydroxy-3-methoxyphenyl)acetamido]-4′-methoxy[1,1′-biphenyl]-3-yl 2-methylpropanoate] | <1 | 35.1 | – | –
8 | COc1cc(CC(=O)Nc2cccc(-c3cccc(OC(=O)C(C)C)c3)c2OC)ccc1O [Example 21, 3′-[2-(4-hydroxy-3-methoxyphenyl)acetamido]-2′-methoxy[1,1′-biphenyl]-3-yl 2-methylpropanoate] | <1 | 6750 | – | –
9 | COc1cc(CC(=O)Nc2cc(-c3cccc(OC(=O)C(C)C)c3)ccc2F)ccc1O [Example 22, 4′-fluoro-3′-[2-(4-hydroxy-3-methoxyphenyl)acetamido][1,1′-biphenyl]-3-yl 2-methylpropanoate] | <1 | 6.8 | – | –
10 | COc1cc(CC(=O)Nc2cccc(-c3cccc(OC(=O)C(C)C)c3)c2F)ccc1O [Example 23, 2′-fluoro-3′-[2-(4-hydroxy-3-methoxyphenyl)acetamido][1,1′-biphenyl]-3-yl 2-methylpropanoate] | <1 | 15.2 | – | –
11 | COc1cc(CC(=O)Nc2cccc(-c3cccc(OC(=O)C(C)C)c3)c2)ccc1O [Example 24, 3′-[2-(4-hydroxy-3-methoxyphenyl)acetamido][1,1′-biphenyl]-3-yl 2-methylpropanoate] | <1 | 3.9 | stronger TRPV-1-agonistic activity | –
12 | COc1cc(CC(=O)Nc2cc(-c3cccc(OC(=O)C(C)C)c3)ccn2)ccc1O [Example 25, 3-{2-[2-(4-hydroxy-3-methoxyphenyl)acetamido]pyridin-4-yl}phenyl 2-methylpropanoate] | <1 | 38 | – | –
13 | COc1cc(CC(=O)Nc2cccc(-c3cccc(OC(=O)Cc4ccc(C)cc4)c3)c2)ccc1O [Example 27, 3′-[2-(4-hydroxy-3-methoxyphenyl)acetamido][1,1′-biphenyl]-3-yl (4-methylphenyl)acetate] | <1 | 11.1 | – | –
14 | COc1cc(CC(=O)Nc2cccc(-c3cccc(OC(=O)Cc4ccccc4F)c3)c2)ccc1O [Example 28, 3′-[2-(4-hydroxy-3-methoxyphenyl)acetamido][1,1′-biphenyl]-3-yl (2-fluorophenyl)acetate] | <1 | 8.8 | – | –
15 | COc1cc(CC(=O)Nc2cccc(-c3cccc(OC(=O)CC4CCOCC4)c3)c2)ccc1O [Example 29, 3′-[2-(4-hydroxy-3-methoxyphenyl)acetamido][1,1′-biphenyl]-3-yl (oxa-4-yl)acetate] | <1 | 13.2 | – | –
16 | COc1cc(CC(=O)Nc2cccc(-c3cccc(OC(=O)CC4CCCCC4)c3)c2)ccc1O [Example 30, 3′-[2-(4-hydroxy-3-methoxyphenyl)acetamido][1,1′-biphenyl]-3-yl cyclohexylacetate] | <1 | 7.2 | – | –
17 | COc1cc(CC(=O)Nc2ccnc(-c3cccc(OC(=O)CC4CCCCC4)c3)c2)ccc1O [Example 31, 3-{4-[2-(4-hydroxy-3-methoxyphenyl)acetamido]pyridin-2-yl}phenyl cyclohexylacetate] | <1 | 14.9 | – | –
18 | COc1cc(CC(=O)Nc2cccc(-c3cccc(OC(=O)CC4CCCCC4)c3)n2)ccc1O [Example 32, 3-{6-[2-(4-hydroxy-3-methoxyphenyl)acetamido]pyridin-2-yl}phenyl cyclohexylacetate] | 2 | 11.6 | – | –
19 | COc1cc(CC(=O)Nc2ccnc(-c3cccc(OC(=O)C4CCCCC4)c3)c2)ccc1O [Example 33, 3-{4-[2-(4-hydroxy-3-methoxyphenyl)acetamido]pyridin-2-yl}phenyl cyclohexanecarboxylate hydrochloride] | <1 | 12.5 | – | –
20 | COc1cc(CC(=O)Nc2cccc(-c3cccc(OC(=O)C4CCCCC4)c3)n2)ccc1O [Example 34, 3-{6-[2-(4-hydroxy-3-methoxyphenyl)acetamido]pyridin-2-yl}phenyl cyclohexanecarboxylate] | <1 | 12.8 | – | –
21 | COc1cc(CNC(=O)c2cccc(-c3cccc(OC(=O)C(C)C)c3)c2)ccc1O [Example 44, 3′-1{[(4-hydroxy-3-methoxyphenyl)methyl]carbamoyl}[1,1′-biphenyl]-3-yl 2-methylpropanoate] | <1 | 10.2 | – | –
22 | COc1cc(CNC(=O)c2cccc(-c3cccc(OC(=O)CC4CCCCC4)c3)c2)ccc1O [Example 45, 3′-{[(4-hydroxy-3-methoxyphenyl)methyl]carbamoyl}[1,1′-biphenyl]-3-yl cyclohexylacetate] | <1 | 31.3 | – | –
23 | COc1cc(CNC(=O)c2ccnc(-c3cccc(OC(=O)C(C)C)c3)c2)ccc1O [Example 46, 3-(4-{[(4-hydroxy-3-methoxyphenyl)methyl]carbamoyl}pyridin-2-yl)phenyl 2-methylpropanoate] | <1 | 4.3 | stronger TRPV-1-agonistic activity | –
24 | COc1cc(CNC(=O)c2cccc(-c3cccc(OC(=O)C(C)C)c3)n2)ccc1O [Example 47, 3-(6-{[(4-hydroxy-3-methoxyphenyl)methyl]carbamoyl}pyridin-2-yl)phenyl 2-methylpropanoate] | <1 | 148 | – | –

— patent publication US12590063B2, “Phenol derivative” (Sumitomo Pharma Co., Ltd., priority 2020, dated 2026)
